In PMC8151276, “An Integrated Approach toward NanoBRET Tracers for Analysis of GPCR Ligand Engagement” (Molecules, 2021):

What was measured:
Assay type in all cases: binding
GNRHR = molecular target: T1, GNRHR (Homo sapiens, UniProt P30968); experiment: NanoBRET screen HiBiT-GNRHR in HEK293
T1 construct: purchased Promega (in-house HiBiT-GPCR construct library, NanoBRET)
T1 sequence (P30968 1-328): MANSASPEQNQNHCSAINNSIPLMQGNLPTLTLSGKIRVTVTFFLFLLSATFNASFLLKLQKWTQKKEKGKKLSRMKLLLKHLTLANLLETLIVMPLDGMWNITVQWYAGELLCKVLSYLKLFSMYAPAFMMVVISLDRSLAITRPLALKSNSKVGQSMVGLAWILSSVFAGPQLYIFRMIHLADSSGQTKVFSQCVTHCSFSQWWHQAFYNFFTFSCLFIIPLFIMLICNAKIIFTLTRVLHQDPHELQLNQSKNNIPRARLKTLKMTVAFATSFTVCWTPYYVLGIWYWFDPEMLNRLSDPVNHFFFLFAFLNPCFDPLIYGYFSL
Method: (§1) Each tracer candidate was screened across the entire library of HiBiT-GPCR constructs using NanoBRET as the detection modality. As depicted in Figure 4A, the specificity of interactions was evaluated through decrease in BRET due to competitive displacement of a bound tracer by excess parental compound. Each tracer was analyzed for binding to each HiBiT-GPCR fusion in the absence and in the presence of competing parental compound. Briefly, HEK293 cells were transfected with HiBiT-GPCR constructs diluted into promoterless DNA to reduce expression and maximize translocation to the cell surface. Each tracer candidate was then screened at concentrations of 1 μM and 0.1 μM across cells expressing these fusions. Cells were treated for 1.5 h with tracer either alone or in the presence of 20 μM competing parental compound (i.e., control). BRET was measured upon addition of purified LgBiT and subsequent complementation with HiBiT genetically fused to a GPCR. The specificity of interactions was assessed through a decrease in BRET signal due to competitive displacement of the bound tracer. To further gauge the robustness of these interactions, the fold response over the control (i.e., BRETtracer/BRETcontrol) was calculated. We chose a 1.5-fold response, which translates to ≥7-fold signal over noise as the minimal threshold required to score an interaction as positive. […]. Below we highlight the screening results obtained for our exemplary fluorescent tracers based on Clozapine, Amitriptyline and AZD1283.
(§2) HiBiT-GPCR DNA constructs were diluted in 10 mM Tris pH 8 to a final concentration of 0.01 μg/μL, arrayed in 96-well plates and stored at −20 °C. For transfection, HEK293 cells were suspended in Opti-MEM (without phenol red) supplemented with 2% fetal bovine serum (Seradigm) and 100 units/mL penicillin–streptomycin (Gibco) at a final concentration of 220,000 cells/mL and dispensed into white 96-well plates at 90 μL/well. Subsequent transfections and screens were carried using an Agilent Bravo Automated Liquid Handling Platform. First, the 96-well HiBiT DNA arrays were diluted 25-fold in Opti-MEM (without serum or phenol red) to a final concentration of 0.0004 μg/μL and 20 μL of the diluted DNAs were transferred into new 96-well plates. Next, promoterless carrier DNA (1 μg/μL) was diluted 25-fold (0.04 μg/μL) and then dispensed into the diluted arrays at 20 μL/well. Following brief mixing, Viafect transfection reagent (Promega) diluted 16-fold into Opti-MEM was dispensed into the plates at 40 μL/well. After mixing by pipetting, plates were incubated for 10 min on the pipetting station deck. The DNA-transfection reagent complexes were then added to plates containing cells. To facilitate the screen, 10 μL of DNA-transfection reagent complexes were added in duplicates to the top 4 and bottom 4 rows, resulting in two identical 48-well arrays per plate. Plates with transfected cells were incubated for 18–20 h at 37 °C/5% CO2. A screen of each tracer across the entire library using two different concentrations requires duplicate plates of transfected cells. Depending on the number of tracers being screened, transfections can be scaled up using the same ratios. The next day, for each tracer, four 20× screening solutions in tracer dilution buffer (Promega) were prepared: two duplicates at final concentration of 20 μM and two duplicates at a final concentration of 2 μM. A competing unmodified compound was added to one of each duplicate at a final concentration of 400 μM. The four resulting solutions were diluted 4-fold in Opti-MEM without serum or phenol red to generate 5× solutions (5 µM and 0.5 µM tracer +/− 100 μM competing compound). To screen the library, a BioTek MultiFlo FX liquid dispenser was used to dispense 22.5 µL of tracer solution to the top 4 rows and 22.5 µL tracer + competing compound solution to the 4 bottom rows. Plates were briefly mixed on an orbital shaker and incubated for 1.5 h at room temperature. […]

NTSR1 = molecular target: T2, NTSR1 (Homo sapiens, UniProt P30989); experiment: NanoBRET screen HiBiT-NTSR1 in HEK293
T2 construct: purchased Promega (in-house HiBiT-GPCR construct library, NanoBRET)
Method: as §1, §2

GALR3 = molecular target: T3, GALR3 (Homo sapiens, UniProt O60755); experiment: NanoBRET screen HiBiT-GALR3 in HEK293
T3 construct: purchased Promega (in-house HiBiT-GPCR construct library, NanoBRET)
T3 sequence (O60755 1-368): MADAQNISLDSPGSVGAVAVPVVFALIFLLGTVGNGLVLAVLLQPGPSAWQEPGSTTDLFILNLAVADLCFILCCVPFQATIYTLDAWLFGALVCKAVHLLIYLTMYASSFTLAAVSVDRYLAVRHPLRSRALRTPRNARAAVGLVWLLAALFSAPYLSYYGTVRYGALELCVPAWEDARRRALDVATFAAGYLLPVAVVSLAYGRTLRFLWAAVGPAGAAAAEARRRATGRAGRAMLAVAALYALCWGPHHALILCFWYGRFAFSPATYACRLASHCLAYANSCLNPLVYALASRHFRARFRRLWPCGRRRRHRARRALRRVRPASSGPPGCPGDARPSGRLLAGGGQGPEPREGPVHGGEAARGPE
Method: as §1, §2

P2RY6 = molecular target: T4, P2RY6 (Homo sapiens, UniProt Q15077); experiment: NanoBRET screen HiBiT-P2RY6 in HEK293
T4 construct: purchased Promega (in-house HiBiT-GPCR construct library, NanoBRET)
Method: as §1, §2

BDKRB1 = molecular target: T5, BDKRB1 (Homo sapiens, UniProt P46663); experiment: NanoBRET screen HiBiT-BDKRB1 in HEK293
T5 construct: purchased Promega (in-house HiBiT-GPCR construct library, NanoBRET)
T5 sequence (P46663 1-353): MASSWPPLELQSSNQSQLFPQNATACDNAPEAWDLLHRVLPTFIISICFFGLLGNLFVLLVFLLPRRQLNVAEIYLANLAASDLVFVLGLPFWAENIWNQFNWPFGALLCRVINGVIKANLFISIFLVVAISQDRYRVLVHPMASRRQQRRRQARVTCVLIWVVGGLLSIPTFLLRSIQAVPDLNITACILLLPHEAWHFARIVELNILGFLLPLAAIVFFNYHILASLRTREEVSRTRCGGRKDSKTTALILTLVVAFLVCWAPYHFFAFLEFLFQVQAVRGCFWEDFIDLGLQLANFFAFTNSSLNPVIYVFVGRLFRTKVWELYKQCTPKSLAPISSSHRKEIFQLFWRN
Method: as §1, §2

T2 sequence (P30989 whole entry): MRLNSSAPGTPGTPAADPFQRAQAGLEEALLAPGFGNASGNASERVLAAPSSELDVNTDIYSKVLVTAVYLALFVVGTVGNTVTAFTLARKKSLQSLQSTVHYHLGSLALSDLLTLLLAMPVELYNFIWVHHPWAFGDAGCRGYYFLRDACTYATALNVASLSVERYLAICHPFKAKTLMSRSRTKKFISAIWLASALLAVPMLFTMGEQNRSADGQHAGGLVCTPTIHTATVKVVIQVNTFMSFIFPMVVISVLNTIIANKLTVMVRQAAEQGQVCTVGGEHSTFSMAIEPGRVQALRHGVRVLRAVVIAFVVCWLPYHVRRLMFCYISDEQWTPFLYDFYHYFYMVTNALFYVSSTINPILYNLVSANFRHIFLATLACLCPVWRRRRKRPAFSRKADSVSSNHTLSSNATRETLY
T4 sequence (Q15077 whole entry): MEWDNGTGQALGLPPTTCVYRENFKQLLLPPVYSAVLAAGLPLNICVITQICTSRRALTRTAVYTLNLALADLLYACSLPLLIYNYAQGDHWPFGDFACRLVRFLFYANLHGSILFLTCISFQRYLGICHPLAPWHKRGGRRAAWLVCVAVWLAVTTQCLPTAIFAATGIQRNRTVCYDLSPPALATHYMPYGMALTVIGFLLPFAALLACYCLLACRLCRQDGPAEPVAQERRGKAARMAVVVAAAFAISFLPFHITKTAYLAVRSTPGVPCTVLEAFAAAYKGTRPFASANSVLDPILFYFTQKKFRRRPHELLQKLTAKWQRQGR

Row | SMILES | NanoBRET Fold Response (GNRHR; 0.1μM tracer) | NanoBRET Fold Response (GNRHR; 1μM tracer) | NanoBRET Fold Response (NTSR1; 0.1μM tracer) | NanoBRET Fold Response (NTSR1; 1μM tracer) | NanoBRET Fold Response (GALR3; 0.1μM tracer) | NanoBRET Fold Response (GALR3; 1μM tracer) | NanoBRET Fold Response (P2RY6; 0.1μM tracer) | NanoBRET Fold Response (P2RY6; 1μM tracer) | NanoBRET Fold Response (BDKRB1; 0.1μM tracer) | NanoBRET Fold Response (BDKRB1; 1μM tracer) | NanoBRET Fold Response (GNRHR; GNRHR, 0.1μM tracer) | NanoBRET Fold Response (GNRHR; GNRHR, 1μM tracer) | NanoBRET Fold Response (NTSR1; NTSR1, 0.1μM tracer) | NanoBRET Fold Response (NTSR1; NTSR1, 1μM tracer) | NanoBRET Fold Response (GALR3; GALR3, 0.1μM tracer) | NanoBRET Fold Response (GALR3; GALR3, 1μM tracer) | NanoBRET Fold Response (P2RY6; P2RY6, 0.1μM tracer) | NanoBRET Fold Response (P2RY6; P2RY6, 1μM tracer) | NanoBRET Fold Response (BDKRB1; BDKRB1, 0.1μM tracer) | NanoBRET Fold Response (BDKRB1; BDKRB1, 1μM tracer)
1 | COc1ccc2c(n1)c(CCNC(C)=O)cn2CCNC(=O)CCc1ccc2n1[B-](F)(F)[N+]1=C(c3ccc[nH]3)C=CC1=C2 [Azamelatonin-1-NB590] | 0.96 | 1.06 | 1.05 | 0.99 | 0.81 | 1.05 | 1.01 | 1.01 | 1.39 | 0.74 |  |  |  |  |  |  |  |  |  | 
2 | COc1ccc2[nH]c(-c3ccc(CNC(=O)CCOCCOCCOCCOCCNC(=O)CCc4ccc5n4[B-](F)(F)[N+]4=C(c6ccc[nH]6)C=CC4=C5)cc3)c(CCNC(C)=O)c2n1 [AzomelatoninICO9-2-NB590] | 0.61 | 0.98 | 0.90 | 0.78 | 1.06 | 1.08 | 1.40 | 1.09 | 1.31 | 1.20 |  |  |  |  |  |  |  |  |  | 
3 | O=C(CCOCCOCCOCCOCCNC(=O)CCc1ccc2n1[B-](F)(F)[N+]1=C(c3ccc[nH]3)C=CC1=C2)NCCCN1CCN(C2=Nc3cc(Cl)ccc3Nc3ccccc32)CC1 [Clozapine-a-2-NB590] |  |  |  |  |  |  |  |  |  |  | 1.02 | 1.24 | 0.97 | 1.00 | 1.02 | 1.13 | 1.02 | 0.92 | 1.02 | 1.37
4 | CN1CCN(C2=Nc3cc(Cl)ccc3Nc3ccc(CNC(=O)CCOCCOCCOCCOCCNC(=O)CCc4ccc5n4[B-](F)(F)[N+]4=C(c6ccc[nH]6)C=CC4=C5)cc32)CC1 [Clozapine-b-2-NB590] |  |  |  |  |  |  |  |  |  |  | 1.06 | 1.02 | 1.00 | 1.01 | 0.93 | 0.91 | 1.04 | 0.98 | 0.99 | 0.92
5 | CN1CCN(C2=Nc3cc(Cl)ccc3N(CC(=O)NCCOCCOCCOCCOCCNC(=O)CCc3ccc4n3[B-](F)(F)[N+]3=C(c5ccc[nH]5)C=CC3=C4)c3ccccc32)CC1 [Clozapine-c-2-NB590] |  |  |  |  |  |  |  |  |  |  | 1.02 | 0.99 | 1.02 | 1.01 | 1.01 | 1.04 | 0.97 | 0.98 | 1.06 | 1.07
